Results published in publication PMC3269786 (Neuron, 2012).

How the values were obtained:
GHSR1a + DRD2 = GHSR1a + DRD2 (Homo sapiens, UniProt P14416+Q92847); format: cell-based
[1] = test system: mice (ghsr+/+, ghsr−/−, ghrelin+/+, ghrelin−/−); test: Food intake experiments in mice; format: in vivo, mouse; conditions: for food intake compared to vehicle: 0.5 mg/kg i.p.
humans = conditions: ref Korner et al., 2003; cited from earlier work
[2] = test system: primary cultures of hypothalamic neurons; test: Fluo-4 Ca2+ mobilization in primary hypothalamic neurons; format: cell-based, mouse; conditions: quinpirole 10 µM; ghrelin 100 nM after washing
[3] = target: GHSR1a and DRD2 co-expressed in SH-SY5Y cells (SH-GHSR1a) (Homo sapiens, UniProt P14416+Q92847); format: cell-based; conditions: quinpirole 10 µM; pretreatment 5 min
Chain of GHSR1a and DRD2 co-expressed in SH-SY5Y cells (SH-GHSR1a) (Q92847 whole entry): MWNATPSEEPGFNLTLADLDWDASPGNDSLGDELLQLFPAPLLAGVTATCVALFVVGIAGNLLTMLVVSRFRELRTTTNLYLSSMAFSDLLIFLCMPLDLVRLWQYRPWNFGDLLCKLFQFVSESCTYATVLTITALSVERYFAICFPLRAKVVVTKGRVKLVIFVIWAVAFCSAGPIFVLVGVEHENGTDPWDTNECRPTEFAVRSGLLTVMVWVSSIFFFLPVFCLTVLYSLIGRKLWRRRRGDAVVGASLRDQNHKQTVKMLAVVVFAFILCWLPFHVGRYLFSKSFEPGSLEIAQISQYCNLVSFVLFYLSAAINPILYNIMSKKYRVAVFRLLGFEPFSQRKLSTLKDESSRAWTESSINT
Chain of GHSR1a and DRD2 co-expressed in SH-SY5Y cells (SH-GHSR1a) (P14416 whole entry): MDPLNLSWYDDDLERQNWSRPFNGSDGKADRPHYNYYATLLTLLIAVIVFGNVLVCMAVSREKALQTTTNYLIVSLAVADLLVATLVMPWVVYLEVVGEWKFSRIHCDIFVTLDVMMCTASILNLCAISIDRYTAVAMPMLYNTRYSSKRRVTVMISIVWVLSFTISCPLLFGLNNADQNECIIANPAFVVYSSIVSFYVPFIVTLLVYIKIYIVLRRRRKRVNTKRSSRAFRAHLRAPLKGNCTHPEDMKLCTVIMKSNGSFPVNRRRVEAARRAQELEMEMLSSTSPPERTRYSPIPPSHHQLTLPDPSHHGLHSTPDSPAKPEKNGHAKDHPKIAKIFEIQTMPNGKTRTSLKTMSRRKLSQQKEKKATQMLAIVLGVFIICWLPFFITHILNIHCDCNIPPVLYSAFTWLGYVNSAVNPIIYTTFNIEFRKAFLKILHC

SNAP-F279L-GHSR1a = SNAP-F279L-GHSR1a (UniProt Q92847); test: FRET or BRET
Chain of SNAP-F279L-GHSR1a (Q92847 whole entry F279L): as the sequence (Q92847 whole entry) above, with F279L counted along it

[4] = target: SNAP-GHSR1a (growth hormone secretagogue receptor / ghrelin receptor with a SNAP-tag at the N-terminus) (UniProt Q92847); test: FRET or BRET
Chain of SNAP-GHSR1a (growth hormone secretagogue receptor / ghrelin receptor with a SNAP-tag at the N-terminus) (Q92847 whole entry): as the sequence (Q92847 whole entry) above

SNAP-M213K-GHSR1a = SNAP-M213K-GHSR1a (UniProt Q92847); test: FRET or BRET
Chain of SNAP-M213K-GHSR1a (Q92847 whole entry M213K, the tested form may be a part): as the sequence (Q92847 whole entry) above, with M213K counted along it

rats = conditions: 6 day central infusion, ref Petersen et al., 2009; cited from earlier work
SNAP-GHSR1a = SNAP-GHSR1a (Homo sapiens, UniProt Q92847); test: Tr-FRET red-ghrelin binding assay in HEK293 cells expressing SNAP-GHSR1a
Chain of SNAP-GHSR1a (Q92847 whole entry): as the sequence (Q92847 whole entry) above

Chain of GHSR1a + DRD2 (Q92847 whole entry): as above
Chain of GHSR1a + DRD2 (P14416 whole entry): as the sequence (P14416 whole entry) above
Chain of HA-CLIP-DRD2 (P14416 whole entry): as above

NCCOB(c1ccccc1)c1ccccc1 [2-aminoethoxydiphenyl borate]
effect on dopamine-induced Ca2+ signaling (GHSR1a + DRD2): blocked

CN1CCc2cc(Cl)c(O)cc2[C@@H](c2ccccc2)C1 [SCH23390]
effect on dopamine-induced Ca2+ signaling (GHSR1a + DRD2): ineffective

Oc1cc2c(c(Cl)c1O)CCNCC2c1ccccc1 (stereo not drawn) [SKF81297]
effect of preincubation on ghrelin-induced Ca2+ response (GHSR1a + DRD2; 30 min preincubation, ghrelin 100 nM): fails to inhibit

C=CCN1C[C@H](C(=O)N(CCCN(C)C)C(=O)NCC)C[C@@H]2c3cccc4[nH]cc(c34)C[C@H]21 [cabergoline]
agonist-induced increase of [Ca2+]i (GHSR1a + DRD2; cells co-expressing GHSR1a + DRD2): dose-dependent mobilization of Ca^2+ | food intake compared to vehicle ([1]; ghrelin+/+ and ghrelin−/− mice): significantly reduced food intake irrespective of genotype | food intake compared to vehicle ([1]; ghsr+/+ mice, within 2 h): markedly reduced | food intake compared to vehicle ([1]; ghsr−/− mice): unaffected | food intake ([1]; mice, cabergoline 0.5 mg/kg and 2 mg/kg): dose dependent suppression of food intake | body weight in treated humans (humans): weight loss

CCCCCCCC(=O)OC[C@H](NC(=O)[C@H](CO)NC(=O)CN)C(=O)N[C@@H](Cc1ccccc1)C(=O)N[C@@H](CC(C)C)C(=O)N[C@@H](CO)C(=O)N1CCC[C@H]1C(=O)N[C@@H](CCC(=O)O)C(=O)N[C@@H](Cc1c[nH]cn1)C(=O)N[C@@H](CCC(N)=O)C(=O)N[C@@H](CCCNC(=N)N)C(=O)N[C@H](C(=O)N[C@@H](CCC(N)=O)C(=O)N[C@@H](CCC(N)=O)C(=O)N[C@@H](CCCNC(=N)N)C(=O)N[C@@H](CCCCN)C(=O)N[C@@H](CCC(=O)O)C(=O)N[C@@H](CO)C(=O)N[C@@H](CCCCN)C(=O)N[C@@H](CCCCN)C(=O)N1CCC[C@H]1C(=O)N1CCC[C@H]1C(=O)N[C@@H](C)C(=O)N[C@@H](CCCCN)C(=O)N[C@@H](CC(C)C)C(=O)N[C@@H](CCC(N)=O)C(=O)N1CCC[C@H]1C(=O)N[C@@H](CCCNC(=N)N)C(=O)O)C(C)C [ghrelin]
Ca2+ response in primary hypothalamic neurons [2]: immediate Ca^2+ response

CCN1CCC[C@H]1CNC(=O)c1c(O)c(Cl)cc(Cl)c1OC [raclopride]
effect on quinpirole-induced Ca2+ signal [3]: Attenuation of the Ca^2+ signal | effect on dopamine-induced Ca2+ signaling (GHSR1a + DRD2): dose-dependently inhibited

CCN1CCCC1CNC(=O)c1cc(S(N)(=O)=O)ccc1OC (stereo not drawn) [sulpiride]
effect on dopamine-induced Ca2+ signaling (GHSR1a + DRD2): dose-dependently inhibited | effect on ghrelin-induced Ca2+ mobilization (GHSR1a + DRD2; GHSR1a+DRD2 cells, ghrelin 100 nM): partially inhibited

HA-CLIP-DRD2 (from UniProt P14416 1-443) (receptor)
FRET50 (SNAP-F279L-GHSR1a): 0.49 | FRET50 [4]: 0.086 | FRET50 (SNAP-M213K-GHSR1a): 0.79

JMV2959
effect on cabergoline-induced suppression of food intake ([1]; ghsr+/+ mice, JMV2959 0.2 mg/kg i.p. 30 min before cabergoline 0.5 mg/kg): prevented | effect on food intake in cabergoline treated mice ([1]; ghsr−/− mice, JMV2959 0.2 mg/kg i.p. 30 min before cabergoline 0.5 mg/kg): unaffected

[D-Arg1,D-Phe5,D-Trp7,9,Leu11]-substance P
food intake and weight gain (rats): modest reductions in food intake and weight gain

des-acyl ghrelin
inhibition of red ghrelin binding (SNAP-GHSR1a): ineffective
